Experimental data taken from US6034085A, “Salt form of nefazodone for use in extended release formulations” (Bristol-Myers Squibb Co., priority 1998, dated 2000).
Entries after “also recorded” stand apart in the source; their conditions may differ. Counter-ions that a name gives are not always drawn. Like-named read-outs stand apart in the source and are kept apart here.

Experiments:
[1] = Intrinsic dissolution of various nefazodone salts in water at 37° C.; format: physicochemical; settings: for Intrinsic Dissolution Rate: n = 2; for Final pH: pH of the aqueous medium after dissolution had occurred
Procedure: Table 1 sets out intrinsic dissolution rates for various salts of nefazodone in water at 37° C. The final pH value is the pH of the aqueous medium after dissolution had occurred. […] Note, however, that the tosylate salt's dissolution rate is also slow even though the media is acidic in nature.
The intrinsic dissolution experiments were performed with 75 mL water as the dissolution medium. The details of these dissolution experiments are summarized below:
Container: Double-walled beaker, 100 mL capacity, round bottom.
Volume of sample withdrawn per interval: 1 mL.
Temperature of the solution in the beaker was maintained by means of a circulating waterbath. The medium was stirred with a USP II paddle using 100 rpm stirring rate (paddle depth=1 inch below the surface of the medium). Samples were withdrawn through a 0.45 μm syringe filter and were analyzed without any further dilution or treatment by HPLC (Method 1).

[2] = extended release formulations, cited from earlier work
[3] = Drug release from tablets in simulated gastric fluid pH 1.2 (FIG. 2); format: physicochemical; settings: pH 1.2, 37° C.
Procedure: (§1) The curves are plotted as percent nefazodone released over time in hours.
(§2) Remaining dissolution experiments were made with the nefazodone salts formulated into tablets as described more fully infra. Essentially, the tablets were comprised of a nefazodone salt, hydroxypropylcellulose, lactose and magnesium stearate.
(§3) Release Profiles from the Tablet Formulation
(§4) The preparation and characterization of tablets of salts of nefazodone was performed as described below:
(§5) The nefazodone salt, hydroxypropyl cellulose EF and lactose were mixed for 10-15 minutes. Magnesium stearate was added to this mixture, mixing it for five more minutes. Tablets were compressed using a Manesty machine (Model-Manesty B3B). The tablet hardness was approximately 7 SCU.
(§6) Dissolution studies were performed with a USP II apparatus in simulated gastric fluid (USP, pH 1.2), simulated intestinal fluid (USP, pH 7.5) and 0.5 M THAM (pH 7.7). The details of conditions for the dissolution experiments are as follows:
(§7) […]: 900 mL.
(§8) Sample volume withdrawn at each interval: 0.7 mL.
(§9) Samples were filtered during withdrawal and chromatographed without further dilution or treatment. Samples were analyzed by Waters HPLC system. The HPLC conditions are listed in Method 2 below.

[4] = cited from earlier work
[5] = Stability under pharmaceutical processing and storage; format: physicochemical; settings: pharmaceutical processing/handling and storage; listed as mesylate salt
[6] = Drug release from tablets in simulated intestinal fluid pH 7.5 (FIG. 3); format: physicochemical; settings: pH 7.5, 37° C.
Procedure: as §1, §2, §3, §4, §5, §6, §7, §8, §9

[7] = Dissolution of powdered nefazodone salts in 0.125M THAM buffer (FIG. 1); format: physicochemical; settings: powder, pH 7.5, 37° C.
Procedure: The curves are plotted as cumulative amounts of nefazodone versus time in minutes.
To assess solubility in non-acidic media, dissolution rates were determined for selected nefazodone salts in THAM buffer (0.125M, pH 7.5) made by dissolving tri(hydroxymethyl)aminomethane in water and adjusting the pH with conc. hydrochloride acid.
Intrinisic Dissolution Experiments in THAM
THAM buffer was prepared by dissolving tri(hydroxymethyl)aminomethane in water and adjusting the pH with concentrated hydrochloric acid. Dissolution of salts of nefazodone in powder form was studied in this medium.
The experiments were conducted in 0.125 M THAM (pH 7.7) at 37° C. using the USP II dissolution apparatus. Nefazodone […] in powder form (about 75-80 mg) were added to 900 mL dissolution medium stirred at 50 rpm and samples were withdrawn at time points up to 2 hours. The USP official method recommends paddles to be 1 inch from the bottom. In this experiment, paddles were 3/4 inch from the bottom. The paddle depth was altered to facilitate suspension of the powder during experiments. Samples were analyzed using HPLC assay.

[8] = Drug release from tablets in 0.5M THAM buffer (FIG. 4); format: physicochemical; settings: 37° C.
Procedure: as §1, §2, §3, §4, §5
The details of conditions for the dissolution experiments are as follows:
as §7, §8, §9

[9] = Aqueous solubility of nefazodone as a function of pH; format: physicochemical; settings: gastrointestinal tract / pH range
[10] = cited from earlier work; remark: listed apart in the source

Row | solubility / dissolution rate in water [1] | Intrinsic Dissolution Rate [1] [mg/min/cm 2] | Final pH [1] | Structure (SMILES) | other results
1 | Low solubilities | 0.03 | 5.4 | CCc1nn(CCCN2CCN(c3cccc(Cl)c3)CC2)c(=O)n1CCOc1ccccc1 [Acetate] | 
2 |  | 1.15 | 4.2 | CCc1nn(CCCN2CCN(c3cccc(Cl)c3)CC2)c(=O)n1CCOc1ccccc1 [D-Malate] | 
3 |  | 1.13 | 3.7 | CCc1nn(CCCN2CCN(c3cccc(Cl)c3)CC2)c(=O)n1CCOc1ccccc1 [D-Tartrate] | 
4 |  | 0.98 | 4.3 | CCc1nn(CCCN2CCN(c3cccc(Cl)c3)CC2)c(=O)n1CCOc1ccccc1 [DL-Malate] | 
5 |  | 1.2 | 3.7 | CCc1nn(CCCN2CCN(c3cccc(Cl)c3)CC2)c(=O)n1CCOc1ccccc1 [DL-Tartrate] | 
6 |  | 0.93 | 4.4 | CCc1nn(CCCN2CCN(c3cccc(Cl)c3)CC2)c(=O)n1CCOc1ccccc1 [Hydrochloride, reference compound] | bioavailability [2]: low observed bioavailability; drug release from tablets ([3]; listed as hydrochloride salt): good solubility; solubility in the intestinal tract ([4]; intestinal tract, pH ranges from about 5-7): low solubility
7 |  | 1.36 | 4.2 | CCc1nn(CCCN2CCN(c3cccc(Cl)c3)CC2)c(=O)n1CCOc1ccccc1 [L-Malate] | 
8 |  | 0.97 | 3.8 | CCc1nn(CCCN2CCN(c3cccc(Cl)c3)CC2)c(=O)n1CCOc1ccccc1 [L-Tartrate] | 
9 |  | 0.30 | 4.8 | CCc1nn(CCCN2CCN(c3cccc(Cl)c3)CC2)c(=O)n1CCOc1ccccc1 [Maleate] | 
10 |  | 2.7 | 4.0 | CCc1nn(CCCN2CCN(c3cccc(Cl)c3)CC2)c(=O)n1CCOc1ccccc1 [Mesylate] | stability [5]: stable solid; also recorded: stable under conditions of pharmaceutical processing and storage; drug release from tablets [6]: best of class dissolution; drug release from tablets ([6]; listed as mesylate salt): performs better than the other salts; concentration of drug dissolved compared to the hydrochloride salt [7]: in the higher grouping, the mesylate is not the best of those shown; drug release from tablets [8]: outperforms the others; solubility throughout the gastrointestinal tract [9]: exhibit solubility throughout the gastrointestinal tract; drug release from tablets [3]: good but not excessive dissolution; drug release from tablets ([3]; listed as mesylate salt): more modest release
11 | Low solubilities | 0.002 | 7.2 | CCc1nn(CCCN2CCN(c3cccc(Cl)c3)CC2)c(=O)n1CCOc1ccccc1 [Nefazodone base] | pka ([10]; first of two pka values): about 6.4; pka ([10]; second of two pka values): ~9.5; nefazodone release in the human intestinal tract ([2]; pH approaches neutrality): inhibited; aqueous solubility ([4]; pH values greater than 6): low aqueous solubility
12 | Low solubilities | 0.16 | 5.0 | CCc1nn(CCCN2CCN(c3cccc(Cl)c3)CC2)c(=O)n1CCOc1ccccc1 [Succinate] | 
13 | slow | 0.1 | 4.4 | CCc1nn(CCCN2CCN(c3cccc(Cl)c3)CC2)c(=O)n1CCOc1ccccc1 [Tosylate] | 
